Data as given in patent US12680074B2, “Antigen presenting T cells, sensitized, manufactured T cells and methods of treatment using the same” (RAPA THERAPEUTICS, LLC, priority 2020, dated 2026).

How the values were obtained:
[1] = system: pancreatic cancer cell line MIA PaCa-2 and lung cancer cell line H23; assay: Example 9 sensitization of manufactured T cells by lysate of etoposide-treated tumor cells, cytokine re-stimulation read-out (FIG. 37); assay type: cell-based, human
Procedure: Manufactured T cells for this and all of the following examples were produced by the following procedure: peripheral blood apheresis PBMC product was subjected to Ficoll gradient centrifugation and the resultant cells were plated at 15×10^6 cells/mL; at culture initiation, temsirolimus was added at a final concentration of 2 μM and basiliximab was added at a final concentration of 30 μg/mL; after 24 hours of culture, IFN-α was added to achieve a final concentration of 20,000 IU/mL; no other cytokines were added; no co-stimulation was provided; the manufactured T cells were harvested on day 6 of culture for further use.
The pancreatic cancer cell line MIA PaCa-2 and the lung cancer cell line H23 were treated for 72-hours with etoposide, an inducer of immunogenic cell death, at concentrations of 0.5, 5.0 and 50 μM. Briefly, a cell concentration of 5×10^6 tumor cells/mL was utilized to generate 100 μL of lysate, which was then used to directly stimulate manufactured T cells. That is, there was no separate T cell APC manufacturing step used for this experiment (lysate added directly to effector T cells). The tumor cell lysate was then added to manufactured T cells which were expanded in X-Vivo 20 media containing IL-2 (100 IU/mL), IL-7 (10 ng/mL), and IL-15 (10 ng/mL).

p62 = assay: Western blot of p62 after 16-hr pre-incubation (FIG. 11); assay type: cell-based, human
Procedure: (§1) For FIGS. 11-13, human CD4^+ and CD8^+ T cells were cultured using a 16-hr pre-incubation interval prior to the addition of 3/28 beads at the reduced ratio of 1:3 beads-to-T cells. As indicated in FIGS. 11-13, the various T cell cultures received different methods of mTOR inhibition (rapamycin at 1.0 μM; temsirolimus at 1.0 or 0.1 μM), different conditions of exogenous IL-2 addition, and different conditions relative to addition of the anti-IL-2 receptor monoclonal antibody, daclizumab. After the 16-hr pre-incubation interval, cells were harvested from the T cell cultures, protein was isolated, and p62 (FIG. 11), phospho-RAPTOR (FIG. 12), or BIM (FIG. 13) and the housekeeper gene β-actin were quantified by western blot.

phospho-RAPTOR = assay: Western blot of phospho-RAPTOR after 16-hr pre-incubation (FIG. 12); assay type: cell-based, human; conditions: high-dose temsirolimus compared to low-dose temsirolimus or high-dose rapamycin
Procedure: as §1

TBET = assay: Intra-cellular TBET expression at day 6 of ex vivo T cell culture (FIG. 1B); assay type: cell-based
Procedure: (§2) T cells were cultured ex vivo, as indicated, using various ratios of anti-CD3, anti-CD28 beads to T cells (1:1 or 1:12); the mTOR inhibitor temsirolimus (1 μM); without or with the anti-IL-2 receptor monoclonal antibody daclizumab (5 or 50 μg/ml); and either Th1 polarization cytokines (IFN-alpha; 10,000 IU/ml) or control regulatory T cell polarization (IL-2 plus TGF-β). At day 6 of culture, the T cells were evaluated for intra-cellular expression of the regulatory T cell transcription factor FoxP3 and the Th1 transcription factor TBET. (FIGS. 1A-1B).

FoxP3 = assay: Intra-cellular FoxP3 expression at day 6 of ex vivo T cell culture (FIG. 1A); assay type: cell-based
Procedure: as §2

[2] = system: IFN-γ and TNF-α secretion by CD4+ and CD8+ T cells; assay: Day 6 / day 13 cytokine secretion after 3:1 3/28 bead co-stimulation, Luminex (FIGS. 3A-3B); assay type: cell-based
Procedure: To evaluate this, we tested cytokine secretion potential of the manufactured T cells at the end of cell culture (day 6) and then again one week after ex vivo expansion after maximal co-stimulation (3/28 bead-to-T cell ratio, 3:1) and propagation in media devoid of any inhibitors. In FIGS. 3A-3B, CD4^+ and CD8^+ T cells were purified and cultured for 6-days either with or without a 16-hr interval of pre-incubation prior to co-stimulation (1:1 ratio of 3/28 beads-to-T cells). As indicated, temsirolimus was added at concentrations of either 1.0 or 0.1 μM; all cultures were supplemented with IFN-α (10,000 IU/ml) and daclizumab (50 μg/ml). On day 6 of culture, the resultant T cells were co-stimulated for 24 hr using a 3:1 ratio of 3/28 beads; the supernatant was tested for cytokine content by Luminex assay (results are described as pg per ml of cytokine secreted per million cells per 24 hr). […] N.A, abbreviation indicates not applicable (insufficient T cell yield to perform assay).

[3] = temsirolimus plus daclizumab under TREG-permissive conditions: bead ratio 1:12, no IFN-α, exogenous IL-2 plus TGF-β

| Molecule | sensitizing manufactured T cells to cytokine secretion in response to repeat exposure to lysate ([1]; 72-hour incubation of MIA PaCa-2 or H23 with etoposide 0.5 to 5.0 μM) | T cell sensitization ([1]; etoposide at the higher concentration of 50 μM) | autophagy marker p62 (p62; pre-incubation, 1:3 beads, daclizumab, rapamycin 1 μM or temsirolimus 1.0 or 0.1 μM) | phosphorylated form of RAPTOR (phospho-RAPTOR) | expression of TBET (TBET; combination of temsirolimus and an anti-IL-2 receptor monoclonal antibody) | FoxP3 expression (FoxP3; exogenous IL-2 added in combination with IFN-α) | T cell expression of FoxP3 (FoxP3; temsirolimus 1.0 μM with IFN-α, relative to day 0 input T cell population) | FoxP3 expression (FoxP3; [3]) | day 13 T cell IFN-γ and TNF-α secretion ([2]; pre-incubation plus high-dose temsirolimus, after one week without inhibitors) | day 6 T cell cytokine secretion potential ([2]; temsirolimus 0.1 μM) | day 6 T cell IFN-γ and TNF-α secretion after 24 hr of maximal co-stimulation ([2]; temsirolimus 1.0 μM, with or without overnight pre-incubation) | autophagy marker p62 (p62; IL-2 receptor blockade eliminated from the regimen) | TBET expression, dose response (TBET; 50 μg/ml versus 5 μg/ml) | FoxP3 expression, dose-response (FoxP3; antibody at 50 μg/ml versus 5 μg/ml) | FoxP3 expression (FoxP3; blockade of the IL-2 receptor added to temsirolimus and IFN-α) |
| --- | --- | --- | --- | --- | --- | --- | --- | --- | --- | --- | --- | --- | --- | --- | --- |
| COc1cc([C@@H]2c3cc4c(cc3[C@@H](O[C@@H]3O[C@@H]5CO[C@@H](C)O[C@H]5[C@H](O)[C@H]3O)[C@H]3COC(=O)[C@H]23)OCO4)cc(OC)c1O [etoposide] | effective | not effective |  |  |  |  |  |  |  |  |  |  |  |  |  |
| CO[C@H]1C[C@@H]2CC[C@@H](C)[C@@](O)(O2)C(=O)C(=O)N2CCCC[C@H]2C(=O)O[C@H]([C@H](C)C[C@@H]2CC[C@@H](OC(=O)C(C)(CO)CO)[C@H](OC)C2)CC(=O)[C@H](C)/C=C(\C)[C@@H](O)[C@@H](OC)C(=O)[C@H](C)C[C@H](C)/C=C/C=C/C=C/1C [temsirolimus] |  |  | autophagy could be realized | lower levels of phospho-RAPTOR | increased expression of TBET | not effective | reduced | not effective | highest | only partially reduced | very low levels |  |  |  |  |
| daclizumab: anti-IL-2 receptor monoclonal antibody (antibody, chains of the INN, looked up, V domains shown) VH: QVQLVQSGAEVKKPGSSVKVSCKASGYTFTSYRMHWVRQAPGQGLEWIGYINPSTGYTEYNQKFKDKATITADESTNTAYMELSSLRSEDTAVYYCARGGGVFDYWGQGTLVTVSS VL: DIQMTQSPSTLSASVGDRVTITCSASSSISYMHWYQQKPGKAPKLLIYTTSNLASGVPARFSGSGSGTEFTLTISSLQPDDFATYYCHQRSTYPLTFGQGTKVEVK |  |  |  |  |  |  |  | not effective |  |  |  | substantially blunted the induction of autophagy | higher degree | more effective | further reduced |
